Values quoted from earlier work as cited in US20130052262A1, “DABIGATRAN ETEXILATE-CONTAINING ORAL PHARMACEUTICAL COMPOSITION” (priority 2010, published 2013).

Conditions: in the acidic environment

## CCCCCCOC(=O)NC(=N)c1ccc(NCc2nc3cc(C(=O)N(CCC(=O)OCC)c4ccccn4)ccc3n2C)cc1 [dabigatran etexilate, 3-[(2-{[4-(hexyloxycarbonylamino-imino-methyl)-phenylamino]-methyl}-1-methyl-1H-benzimidazole-5-carbonyl)-pyridine-2-yl-amino]-propionic acid ethyl ester]
  pH-dependent solubility: greatly increased
